Results from patent US6383772B1, “Enzymatic conversion in a solvent mixture containing water and flourinated, non-chlorinated solvent” (Advanced Phytonic Limited, priority 1997, dated 2002).

Experiments:
[1] = Solubility of 6-APA in Phytosol solvent; assay type: physicochemical
[2] = background statement; cited from earlier work
[3] = Effect of pH on extraction of PAA from enzymatic liquor with Phytosol D; assay type: physicochemical; conditions: 20 ml enzymatic liquor extracted with 40 ml Phytosol D
Protocol: This example was carried out to assess the efficiency and selectivity of Phytosol D in extracting PAA from the enzymatic liquor at different pH's.
The enzymatic liquor was prepared as described in Example 1 using the enzyme resin from Example C2.
20 ml samples of the liquor were extracted with 40 ml of Phytosol D, at various pH's, using hand held apparatus as follows:
The apparatus consists of a 100 ml graduated glass tube fitted with a filter assembly and a clamping ring which in turn is fitted with a needle valve. The material or solution to be extracted is charged into the tube. The filter is then assembled with the aid of a sealing O ring followed by the clamping ring ensuring that a tight fit is achieved. Phytosol liquid gas is introduced to the glass tube from an aerosol can via the needle valve. The contents of the tube are mixed by vigorous shaking after which the tube is inverted and allowed to stand until the two layers are separated. The Phytosol is then released via the needle valve into an evaporator bottle taking care not to allow any of the aqueous layer to co-discharge.

Row | Structure (SMILES) | solubility in the solvent [1] | solubility in water [2] | Removed (% of total w/w) ([3]; pH 1.4) | Removed (% of total w/w) ([3]; pH 3.8) | Removed (% of total w/w) ([3]; pH 5.3) | Removed (% of total w/w) ([3]; pH 6.5) | Removed (% of total w/w) ([3]; pH 8.0)
1 | CC1(C)S[C@@H]2[C@H](N)C(=O)N2[C@H]1C(=O)O [6-APA, 6-Aminopenicillanic acid] | negligible | around 2% | <1 % of total w/w | <1 % of total w/w | 0 % of total w/w | 0 % of total w/w | 0 % of total w/w
2 | O=C(O)Cc1ccccc1 [PAA, Phenylacetic acid] | – | – | >99 % of total w/w | >99 % of total w/w | 6.5 % of total w/w | <2 % of total w/w | 0 % of total w/w
